Series [1] can be described thus: Monkey oral pharmacokinetic (PK) study, non-naïve Cynomolgus male monkeys. It counts as in vivo. To be noted: for plasma concentration-time profile: PO, over about 24 hours after oral dosing; for Tmax / bioavailability: male, cynomolgus monkey, plasma; for Tmax / bioavailability / AUC0-24 h / Cmax: oral. As to the method:
(§1) Appropriate volumes of vehicles (e.g., 2% Tween 80 (v:v) and 0.5% MC (w:v) in saline or 0.5% MC (w:v) in water were then added into the mortar containing the ground compounds, and the mixture was then grinded with a pestle until a homogeneous paste was formed. Additional appropriate volumes of vehicles were added into the mortar containing each compound, and the mixture was grinded further with the pestle until a homogeneous suspension was obtained.
(§2) The rest of the vehicle was added to make up the final dosing volume of about 1 mg/mL or 2 mg/mL (i.e., final dosing volume of about 5 mL/kg), and the homogenous suspension was continuously stirred prior to and during the dosing.
(§3) Non-naïve Cynomolgus male monkeys (n=3/test article; sourced from Hainan Jingang Biotech Co., Ltd., Nayang Xmtan, Fucheng Town, Qiongshan District, Haikou City, Hainan Province, China); or non-naïve aged, obese, and diabetic male Macaca fascicularis monkeys (n=3/test article, Source: Kunming Biomed International Colony) were used in pre-clinical in vivo studies. All non-naïve Cynomolgus male monkeys were approximately 3 to 5 years old, weighed about 2.5-5 kg, and were within ±20% of the average body weight. All non-naïve aged, obese, and diabetic male Macaca fascicularis monkeys were approximately 12 to 20 years old, weighed about >8-12 kg.
(§4) All animals were fasted overnight before dosing, and the food were supplied approximately 4 hours post dose (with free access to water all the time).
(§5) Animals were restrained at designated time points for blood sampling. Approximately 500 μL of blood samples was taken via cephalic or saphenous vein into EDTA-K2 tubes. Blood samples were put on wet ice before centrifugation.
(§6) For oral administration (PO) of either Dose 1 or Dose 2: blood samples were collected at pre-dose, and at 15 min, 30 min, 1 hr, 2 hr, 4 hr, (6 hr for compounds 19 and 28 with cynomolgus monkeys only), 8 hr, 12 hr, and 24 hr post dose (i.e., 9 or 10 total time points for each compound at each dose).
(§7) The blood samples were centrifuged at approximately 2,000-4,000 rpm for about 10-15 minutes at 2-8′C, and each resulting plasma portion was then transferred into an individual tube.
(§8) LC-MS/MS methods were developed, and bioanalysis for the test articles in monkey plasma was performed according to the developed LC-MS/MS methods.
Undiluted plasma samples: An aliquot of 20-50 μL plasma sample was mixed with 200 μL of ACN or MeOH containing one of the internal standards (IS, e.g., Diclofenac or Terfenadine). The mixture was then vortexed for about 1-5 min, and centrifuged at about 4,000-5,800 rpm for about 10-15 min. An aliquot of 1 μL supernatant was used for LC-MS/MS analysis.
(§9) Pharmacokinetics parameters, including area under the curve (AUC0-t), maximum plasma concentration (Cmax), time to reach maximum plasma concentration (Tmax), oral bioavailability (F %), etc., were calculated using Phoenix software (Version 6.4) and non-compartment model.

A short description of series [2]: Monkey oral pharmacokinetic (PK) study, aged, obese, and diabetic male monkeys. It counts as in vivo. To be noted: Dose 2, non-naïve aged, obese, and diabetic male Macaca fascicularis monkeys. The protocol:
as §1, §2, §3, §4, §5, §6, §7, §8
Undiluted plasma samples: An aliquot of 20-50 μL plasma sample was mixed with 200 μL of ACN or MeOH containing one of the internal standards (IS, e.g., Diclofenac or Terfenadine). […]
as §9

`N#Cc1ccc(COc2cccc(C3=CCN(Cc4nc5ccc(C(=O)O)cc5n4C[C@@H]4CCO4)CC3)n2)c(F)c1` [Compound 19, (S)-2-((4-(6-(4-cyano-2-fluorobenzyloxy)pyridin-2-yl)-5,6-dihydropyridin-1(2H)-yl)methyl)-1-(oxetan-2-ylmethyl)-1 h-benzo[d]imidazole-6-carboxylic add]: the plasma concentration-time profile entry in series [1] is on record as “sustained at a more constant level”. In series [1] (Dose 1), the Tmax (in general, the time at which the peak concentration occurs) is 2.7 h; the bioavailability (in general, dose-corrected exposure relative to a reference, in per cent) amounted to 10.8%; the AUC0-24 h came to 1130 Arbitrary units; the Cmax was found to be 125 Arbitrary unit. For the same molecule, in series [2], the AUC0-24 h was 2470 Arbitrary units and the Cmax was 413 Arbitrary unit. In series [2] (cynomolgus monkey, plasma), the Tmax is 8.8 h and the bioavailability was 15.5%.
In the case of `O=C(O)c1ccc2nc(CN3CC=C(c4cccc(OCc5ccc(Cl)cc5F)c4)CC3)n(C[C@@H]3CCO3)c2c1` [Compound 28, (S)-2-((4-(3-((4-chloro-2-fluorobenzyl)oxy)phenyl)-3,6-dihydropyridin-1(2H)-yl)methyl)-1-(oxetan-2-ylmethyl)-1 h-benzo[d]imidazole-6-carboxylic add], the plasma concentration-time profile result in series [1] is listed as “sustained at a more constant level”. In series [1] (Dose 1), the Tmax is 3.3 h, the bioavailability was 56.1%, the AUC0-24 h stood at 24900 Arbitrary units and the Cmax was 3910 Arbitrary unit.
As to `O=C(O)c1ccc2nc(CN3CC=C(c4ccc(F)c(OCc5ccc(Cl)cc5F)c4)CC3)n(C[C@@H]3CCO3)c2c1` [Compound 29, (S)-2-((4-(3-((4-chloro-2-fluorobenzyl)oxy)-4-fluorophenyl)-3,6-dihydropyridin-1(2H)-yl)methyl)-1-(oxetan-2-ylmethyl)-1 h-benzo[d]imidazole-6-carboxylic acid], in series [1], the plasma concentration-time profile entry was “sustained at a more constant level”. In series [1] (Dose 2), the Tmax is 1.2 h, the bioavailability stood at 41%, the AUC0-24 h was found to be 21800 Arbitrary units and the Cmax worked out at 3380 Arbitrary unit.
Regarding `N#Cc1ccc(COc2cccc(C3=CCN(Cc4nc5ccc(C(=O)O)nc5n4C[C@@H]4CCO4)CC3)n2)c(F)c1` [Compound 225, (S)-2-((6-((4-cyano-2-fluorobenzyl)oxy)-3′,6′-dihydro-[2,4′-bipyridin]-1′(2′H)-yl)methyl)-3-(oxetan-2-ylmethyl)-3H-imidazo[4,5-b]pyridine-5-carboxylic add], the plasma concentration-time profile result in series [1] is listed as “sustained at a more constant level”. Also, in series [1] (Dose 2), the Tmax was 4 h, the bioavailability came out at 9.93%, the AUC0-24 h came to 1500 Arbitrary units and the Cmax turned out to be 184 Arbitrary unit.

The record behind these values is patent publication US10844049B2, “GLP-1R agonists and uses thereof” (QILU REGOR THERAPEUTICS INC., priority 2018, dated 2020).
